Legend:
[1] = system: ABUTH; assay: Pre-emergence herbicidal action against ABUTH; type: in vivo, Abutilon theophrasti; conditions: for Pre-emergence action against ABUTH (herbicidal activity): 80 g/ha, scored visually after 3 weeks vs untreated controls (100% = plants have died, 0% = like control plants)
Outline: (§1)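 Herbicidal effect was assessed 3 weeks after treatment by visual comparison with untreated controls, 100% denoting dead plants. Aqueous WP or EC preparations had been applied at 600 to 800 l/ha with 0.2% wetting agent to the soil covering freshly sown seeds.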

[2] = system: ALOMY; assay: Pre-emergence herbicidal action against ALOMY; type: in vivo, Alopecurus myosuroides; conditions: 80 g/ha, pre-emergence, scored visually after 3 weeks vs untreated controls (100% = plants have died, 0% = like control plants)
Outline: as §1

[3] = system: AMARE; assay: Pre-emergence herbicidal action against AMARE; type: in vivo, Amaranthus retroflexus
Outline: as §1

[4] = system: AVEFA; assay: Pre-emergence herbicidal action against AVEFA; type: in vivo, Avena fatua; conditions: for Pre-emergence action against AVEFA in %: 80 g/ha
Outline: as §1

[5] = system: ECHCG; assay: Pre-emergence herbicidal action against ECHCG; type: in vivo, Echinochloa crus-galli
Outline: as §1

[6] = system: LOLRI; assay: Pre-emergence herbicidal action against LOLRI; type: in vivo, Lolium rigidum; conditions: 80 g/ha
Outline: as §1

[7] = system: MATIN; assay: Pre-emergence herbicidal action against MATIN; type: in vivo, Matricaria inodora
Outline: as §1

[8] = system: PHBPU; assay: Pre-emergence herbicidal action against PHBPU; type: in vivo, Pharbitis purpurea
Outline: as §1

[9] = system: SETVI; assay: Pre-emergence herbicidal action against SETVI; type: in vivo, Setaria viridis
Outline: as §1

[10] = system: VIOTR; assay: Pre-emergence herbicidal action against VIOTR; type: in vivo, Viola tricolor
Outline: as §1

[11] = system: DIGSA; assay: Pre-emergence herbicidal action against DIGSA; type: in vivo, Digitaria sanguinalis
Outline: as §1

[12] = system: ALOMY; assay: Post-emergence herbicidal action against ALOMY; type: in vivo, Alopecurus myosuroides; conditions: dosage 20 g/ha, visual assessment about 3 weeks after treatment vs untreated controls
Outline: (§2)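 Herbicidal effect was scored visually in percent after about 3 weeks in the greenhouse. Plants had been raised in sandy loam and treated post-emergence at the one-leaf stage with formulated compound at 600 to 800 l/ha water plus 0.2% wetting agent.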

[13] = system: AMARE; assay: Post-emergence herbicidal action against AMARE; type: in vivo, Amaranthus retroflexus; conditions: 20 g/ha, visual assessment about 3 weeks after treatment, 100% = plants have died, 0% = like control plants
Outline: as §2

[14] = system: ECHCG; assay: Post-emergence herbicidal action against ECHCG; type: in vivo, Echinochloa crus-galli; conditions: dosage 20 g/ha
Outline: as §2

[15] = system: MATIN; assay: Post-emergence herbicidal action against MATIN; type: in vivo, Matricaria inodora; conditions: dosage 20 g/ha
Outline: as §2

[16] = system: PHBPU; assay: Post-emergence herbicidal action against PHBPU; type: in vivo, Pharbitis purpurea; conditions: dosage 20 g/ha
Outline: as §2

[17] = system: SETVI; assay: Post-emergence herbicidal action against SETVI; type: in vivo, Setaria viridis
Outline: as §2

[18] = system: VERPE; assay: Post-emergence herbicidal action against VERPE; type: in vivo, Veronica persica
Outline: as §2

[19] = system: VIOTR; assay: Post-emergence herbicidal action against VIOTR; type: in vivo, Viola tricolor
Outline: as §2

[20] = system: DIGSA; assay: Post-emergence herbicidal action against DIGSA; type: in vivo, Digitaria sanguinalis; conditions: 20 g/ha
Outline: as §2

[21] = 20 g/ha, scored visually after 3 weeks vs untreated controls, 100% = plants have died, 0% = like control plants
[22] = 80 g/ha, scored visually after 3 weeks vs untreated controls (100% = plants have died, 0% = like control plants)

SMILES | Pre-emergence action against ABUTH (herbicidal activity) [1] | Pre-emergence action against ALOMY (herbicidal activity) [2] | Pre-emergence action against AMARE in % [3, 21] | Pre-emergence action against AMARE in % [3, 22] | Pre-emergence action against AVEFA in % [4] | Pre-emergence action against ECHCG in % ([5]; 80 g/ha) | Pre-emergence action against LOLRI in % [6] | Pre-emergence action against MATIN in % ([7]; dosage 20 g/ha) | Pre-emergence action against MATIN in % ([7]; dosage 80 g/ha) | Pre-emergence action against PHBPU in % ([8]; dosage 80 g/ha) | Pre-emergence action against SETVI in % ([9]; dosage 20 g/ha) | Pre-emergence action against SETVI in % ([9]; dosage 80 g/ha) | Pre-emergence action against VIOTR in % ([10]; dosage 80 g/ha) | Pre-emergence action against DIGSA in % ([11]; dosage 80 g/ha) | Post-emergence action against ALOMY in % [12] | Post-emergence action at 20 g/ha against AMARE in % [13] | Post-emergence action against ECHCG in % [14] | Post-emergence action against MATIN in % [15] | Post-emergence action against PHBPU in % [16] | Post-emergence action against VERPE in % ([18]; 20 g/ha) | also measured
CCn1nnnc1NC(=O)c1ccc(C(F)(F)F)c(C(=O)NCC(F)(F)F)c1Cl [Example 2-133] | 100% | 90% | 90% | 100% | 90% | 100% | 80% | 90% | 100% | 80% | 100% | 100% | 90% | 90% | 80% | 90% | 80% | 90% | 80% | 80% | Post-emergence action against SETVI in % ([17]; dosage 5 g/ha): 80%; Post-emergence action against SETVI in % ([17]; dosage 20 g/ha): 90%; Post-emergence action against VERPE in % ([18]; 5 g/ha): 80%; Post-emergence action against VIOTR in % ([19]; 20 g/ha): 80%
CCn1nnnc1NC(=O)c1ccc(C(F)(F)F)c(C(=O)NCC(F)F)c1Cl [Example 2-134] | 100% | 90% | 100% | 100% | 90% | 100% | 80% | 90% | 100% | 90% | 80% | 100% | 100% | 100% | 80% | 100% | 90% | 80% | 90% | 80% | Pre-emergence action against ABUTH (herbicidal activity in percent) ([1]; dosage 20 g/ha, scored visually after 3 weeks vs untreated controls, 100% = plants have died, 0% = like control plants): 100%; Pre-emergence action against AVEFA ([4]; 20 g/ha, scored visually after 3 weeks, 100% = plants have died, 0% = like control plants): 80%; Pre-emergence action against ECHCG in % ([5]; 20 g/ha): 80%; Pre-emergence action against PHBPU in % ([8]; dosage 20 g/ha): 80%; Pre-emergence action against VIOTR in % ([10]; dosage 20 g/ha): 100%; Pre-emergence action against DIGSA in % ([11]; dosage 20 g/ha): 80%; Post-emergence action against VIOTR in % ([19]; 5 g/ha): 80%; Post-emergence action against VIOTR in % ([19]; 20 g/ha): 90%; Post-emergence action against DIGSA [20]: 80%

Reference: patent US12655116B2, “Substituted isophthalic acid diamides” (Bayer Aktiengesellschaft, priority 2020, dated 2026)
